System: MV-4-11 cells
Assay: Gene expression microarray analysis (Affymetrix PrimeView) and GSEA
Format: cell-based, human
Parameters: RFU PODN (11730768_x_at) / Fold change /veh PODN (11730768_x_at) / RFU LINC00158 (11744669_a_at) / Fold change /veh LINC00158 (11744669_a_at) / RFU DUSP10 (11751237_a_at) / Fold change /veh DUSP10 (11751237_a_at) / RFU ID3 (11757404_x_at) / Fold change /veh ID3 (11757404_x_at) / RFU PLEKHG5 (11737974_s_at) / Fold change /veh PLEKHG5 (11737974_s_at) / RFU LRRC4B (11730491_at) / Fold change /veh LRRC4B (11730491_at) / RFU GIMAP4 (11747438_a_at) / Fold change /veh GIMAP4 (11747438_a_at) / RFU KRT8 (11758183_x_at) / Fold change /veh KRT8 (11758183_x_at) / RFU CNN1 (11734310_a_at) / Fold change /veh CNN1 (11734310_a_at) / RFU VPS37D (11726825_at) / Fold change /veh VPS37D (11726825_at) / RFU C10orf10 (11716522_x_at) / Fold change /veh C10orf10 (11716522_x_at) / RFU KIR2DL2 /// KIR2DL4 /// KIR2DL5A /// KIR2DL5B /// KIR2DS1 /// KIR2DS2 /// KIR2DS3 /// KIR2DS4 /// KIR3DL3 /// KIR3DL3 /// KIR3DS1 (11738374_at) / Fold change /veh KIR2DL2 /// KIR2DL4 /// KIR2DL5A /// KIR2DL5B /// KIR2DS1 /// KIR2DS2 /// KIR2DS3 /// KIR2DS4 /// KIR3DL3 /// KIR3DL3 /// KIR3DS1 (11738374_at) / RFU C1QL1 (11718748_at) / Fold change /veh C1QL1 (11718748_at) / RFU TMPRSS4 (11747572_a_at) / Fold change /veh TMPRSS4 (11747572_a_at) / RFU HAMP (11756126_x_at) / Fold change /veh HAMP (11756126_x_at) / RFU RNFT2 (11725882_a_at) / Fold change /veh RNFT2 (11725882_a_at) / RFU NR4A2 (11747474_a_at) / Fold change /veh NR4A2 (11747474_a_at) / RFU ABCC12 (11746883_a_at) / Fold change /veh ABCC12 (11746883_a_at) / RFU TMEM136 (11760407_x_at) / Fold change /veh TMEM136 (11760407_x_at) / RFU CLDN22 /// WWC2 (11732394_at) / Fold change /veh CLDN22 /// WWC2 (11732394_at) / RFU HLA-DPB1 (11760878_x_at) / Fold change /veh HLA-DPB1 (11760878_x_at) / RFU SPINT1 (11716480_a_at) / Fold change /veh SPINT1 (11716480_a_at) / RFU GAP43 (11754022_s_at) / Fold change /veh GAP43 (11754022_s_at) / RFU A4GNT (11735810_at) / Fold change /veh A4GNT (11735810_at) / RFU PRB3 (11715151_x_at) / Fold change /veh PRB3 (11715151_x_at) / RFU TUBB4B (11761932_at) / Fold change /veh TUBB4B (11761932_at) / RFU CAPN14 (11732068_a_at) / Fold change /veh CAPN14 (11732068_a_at) / RFU TMCC2 (11721928_a_at) / Fold change /veh TMCC2 (11721928_a_at) / RFU IRGQ (11745062_a_at) / Fold change /veh IRGQ (11745062_a_at) / RFU FAM174B (11720279_a_at) / Fold change /veh FAM174B (11720279_a_at) / RFU TMPRSS4 (11748680_a_at) / Fold change /veh TMPRSS4 (11748680_a_at) / RFU FAM212B (11763350_a_at) / Fold change /veh FAM212B (11763350_a_at) / RFU PLEKHG5 (11743358_a_at) / Fold change /veh PLEKHG5 (11743358_a_at) / RFU ZSCAN30 (11745921_a_at) / Fold change /veh ZSCAN30 (11745921_a_at) / RFU CMKLR1 (11741424_a_at) / Fold change /veh CMKLR1 (11741424_a_at) / RFU LOC101060620 /// MAPK8IP1 (11723275_at) / Fold change /veh LOC101060620 /// MAPK8IP1 (11723275_at) / RFU SPTSSB (11747773_x_at) / Fold change /veh SPTSSB (11747773_x_at) / RFU PRSS12 (11739890_at) / Fold change /veh PRSS12 (11739890_at) / RFU BIN1 (11741810_x_at) / Fold change /veh BIN1 (11741810_x_at) / RFU WNT11 (11732464_a_at) / Fold change /veh WNT11 (11732464_a_at) / RFU C10orf10 (11716521_a_at) / Fold change /veh C10orf10 (11716521_a_at) / RFU C5orf56 (11738089_at) / Fold change /veh C5orf56 (11738089_at) / RFU CYB561 (11721691_x_at) / Fold change /veh CYB561 (11721691_x_at) / RFU ANKRD19P (11752326_a_at) / Fold change /veh ANKRD19P (11752326_a_at) / RFU OR2T12 /// OR2T33 /// OR2T8 (11738714_s_at) / Fold change /veh OR2T12 /// OR2T33 /// OR2T8 (11738714_s_at) / RFU VCAN (11748164_a_at) / Fold change /veh VCAN (11748164_a_at) / RFU JSRP1 (11732532_at) / Fold change /veh JSRP1 (11732532_at) / RFU KRTAP10-11 (11738290_x_at) / Fold change /veh KRTAP10-11 (11738290_x_at) / RFU MYO3A (11730013_a_at) / Fold change /veh MYO3A (11730013_a_at) / RFU EBF3 (11725865_a_at) / Fold change /veh EBF3 (11725865_a_at) / RFU CAMK2N1 (11719241_x_at) / Fold change /veh CAMK2N1 (11719241_x_at) / RFU C5orf56 (11738088_a_at) / Fold change /veh C5orf56 (11738088_a_at) / RFU OLFML3 (11715873_a_at) / Fold change /veh OLFML3 (11715873_a_at) / RFU LOC100653217 /// NTM (11731650_a_at) / Fold change /veh LOC100653217 /// NTM (11731650_a_at) / RFU MAPK11 (11762145_a_at) / Fold change /veh MAPK11 (11762145_a_at) / RFU FIZ1 (11724087_x_at) / Fold change /veh FIZ1 (11724087_x_at) / RFU OASL (11726364_x_at) / Fold change /veh OASL (11726364_x_at) / RFU SOX15 (11748057_x_at) / Fold change /veh SOX15 (11748057_x_at) / RFU CD79A (11719716_a_at) / Fold change /veh CD79A (11719716_a_at) / RFU HIST1H1D (11736915_at) / Fold change /veh HIST1H1D (11736915_at) / RFU CASKIN2 (11723855_a_at) / Fold change /veh CASKIN2 (11723855_a_at) / RFU LOC730098 (11760151_x_at) / Fold change /veh LOC730098 (11760151_x_at) / RFU OR4N2 (11742367_at) / Fold change /veh OR4N2 (11742367_at) / RFU PRRT2 (11749266_a_at) / Fold change /veh PRRT2 (11749266_a_at) / RFU SNX32 (11753110_a_at) / Fold change /veh SNX32 (11753110_a_at) / RFU CDHR5 (11726645_a_at) / Fold change /veh CDHR5 (11726645_a_at) / RFU RCAN1 (11760418_a_at) / Fold change /veh RCAN1 (11760418_a_at) / RFU FAM167A (11723789_a_at) / Fold change /veh FAM167A (11723789_a_at) / RFU FAM26E (11764081_at) / Fold change /veh FAM26E (11764081_at) / RFU ISYNA1 (11749810_s_at) / Fold change /veh ISYNA1 (11749810_s_at) / RFU ACY1 (11761880_at) / Fold change /veh ACY1 (11761880_at) / RFU 11764098_at / Fold change /veh 11764098_at / RFU SAMD14 (11745864_x_at) / Fold change /veh SAMD14 (11745864_x_at) / RFU NPB (11741838_a_at) / Fold change /veh NPB (11741838_a_at) / RFU TMPRSS6 (11731388_a_at) / Fold change /veh TMPRSS6 (11731388_a_at) / RFU KRTAP10-2 (11738614_at) / Fold change /veh KRTAP10-2 (11738614_at) / RFU ARHGAP8 /// PRR5-ARHGAP8 (11727945_x_at) / Fold change /veh ARHGAP8 /// PRR5-ARHGAP8 (11727945_x_at) / RFU KRTAP5-7 /// NADSYN1 (11734609_at) / Fold change /veh KRTAP5-7 /// NADSYN1 (11734609_at) / RFU RASL12 (11751679_a_at) / Fold change /veh RASL12 (11751679_a_at) / RFU CDKN2B (11736163_a_at) / Fold change /veh CDKN2B (11736163_a_at) / RFU PRF1 (11729649_at) / Fold change /veh PRF1 (11729649_at) / RFU, ZNF638 /// ZNF638-IT1 / Fold change vs veh, ZNF638 /// ZNF638-IT1 / RFU, PANK3 / Fold change vs veh, PANK3 / RFU, SH3YL1 / Fold change vs veh, SH3YL1 / RFU, ZEB2 / Fold change vs veh, ZEB2 / RFU, NRIP1 / Fold change vs veh, NRIP1 / RFU, PTTG1IP / Fold change vs veh, PTTG1IP / RFU, CAPN2 / Fold change vs veh, CAPN2 / RFU, MED14 / Fold change vs veh, MED14 / RFU, SNORA58 / Fold change vs veh, SNORA58 / RFU, C1orf63 / Fold change vs veh, C1orf63 / RFU, LRRFIP1 / Fold change vs veh, LRRFIP1 / RFU, NDUFAF7 / Fold change vs veh, NDUFAF7 / RFU, SLC12A2 / Fold change vs veh, SLC12A2 / RFU, IBTK / Fold change vs veh, IBTK / RFU, ESF1 / Fold change vs veh, ESF1 / Fold change vs veh, TMEM50B / RFU, TAOK1 / Fold change vs veh, TAOK1 / RFU, ACBD3 / Fold change vs veh, ACBD3 / RFU, TMA16 / Fold change vs veh, TMA16 / RFU, RWDD3 / Fold change vs veh, RWDD3 / RFU, BCAT1 / Fold change vs veh, BCAT1 / RFU, EDEM3 / Fold change vs veh, EDEM3 / RFU, TMEM33 / Fold change vs veh, TMEM33 / RFU, WDR75 / Fold change vs veh, WDR75 / RFU, AHCTF1 / Fold change vs veh, AHCTF1 / RFU, TFRC / Fold change vs veh, TFRC / RFU, ZDHHC17 / Fold change vs veh, ZDHHC17 / RFU, NOM1 / Fold change vs veh, NOM1 / RFU, ARL8B / Fold change vs veh, ARL8B / RFU, ZBTB11 / Fold change vs veh, ZBTB11 / RFU, TAMM41 / Fold change vs veh, TAMM41 / RFU, KIAA1704 /// LOC100996395 / Fold change vs veh, KIAA1704 /// LOC100996395 / RFU, ING1 / Fold change vs veh, ING1 / RFU, TRMT61B / Fold change vs veh, TRMT61B / RFU, FUBP3 / Fold change vs veh, FUBP3 / RFU, TP53 / Fold change vs veh, TP53 / RFU, TNKS2 / Fold change vs veh, TNKS2 / RFU, ZFP14 / Fold change vs veh, ZFP14 / RFU, ACTR2 / Fold change vs veh, ACTR2 / RFU, PPP3R1 / Fold change vs veh, PPP3R1 / RFU, PIK3R1 / Fold change vs veh, PIK3R1 / RFU, HNRNPA1 / Fold change vs veh, HNRNPA1 / RFU, RNF170 / Fold change vs veh, RNF170 / RFU, ZNF28 / Fold change vs veh, ZNF28 / RFU, RNGTT / Fold change vs veh, RNGTT / RFU, OGT / Fold change vs veh, OGT / RFU, BRD1 / Fold change vs veh, BRD1 / RFU, MARS / Fold change vs veh, MARS / RFU, ZNF655 / Fold change vs veh, ZNF655 / RFU, FAHD1 / Fold change vs veh, FAHD1 / RFU, BDP1 / Fold change vs veh, BDP1 / RFU, LRRCC1 / Fold change vs veh, LRRCC1 / RFU, ARID1A / Fold change vs veh, ARID1A / RFU, ZNF146 / Fold change vs veh, ZNF146 / RFU, ZNF330 / Fold change vs veh, ZNF330 / RFU, GPN3 / Fold change vs veh, GPN3 / RFU, C9orf123 / Fold change vs veh, C9orf123 / RFU, N4BP2L2 / Fold change vs veh, N4BP2L2 / RFU, ARFIP1 / Fold change vs veh, ARFIP1 / RFU, FAM179B / Fold change vs veh, FAM179B / RFU, BCL10 / Fold change vs veh, BCL10 / RFU, UHRF1BP1L / Fold change vs veh, UHRF1BP1L / RFU, BET1 / Fold change vs veh, BET1 / RFU, CNOT2 / Fold change vs veh, CNOT2 / RFU, ZNF268 / Fold change vs veh, ZNF268 / Fold change vs veh, ZNF507 / RFU, DGCR2 / Fold change vs veh, DGCR2 / RFU, WDSUB1 / Fold change vs veh, WDSUB1 / Fold change vs veh, HSP90B1 /// MIR3652 / RFU, ADSS / Fold change vs veh, ADSS / RFU, GK / Fold change vs veh, GK / RFU, ZNF148 / Fold change vs veh, ZNF148 / RFU, TAF9 / Fold change vs veh, TAF9 / RFU, SLC1A5 / Fold change vs veh, SLC1A5 / RFU, SLMO2 / Fold change vs veh, SLMO2 / RFU, ABCC4 / Fold change vs veh, ABCC4 / RFU, LOC101060439 /// RAP1B / Fold change vs veh, LOC101060439 /// RAP1B / RFU, RFX7 / Fold change vs veh, RFX7 / RFU, GTPBP10 / Fold change vs veh, GTPBP10 / RFU, CNEP1R1 / Fold change vs veh, CNEP1R1 / RFU, BIVM-ERCC5 /// ERCC5 / Fold change vs veh, BIVM-ERCC5 /// ERCC5 / RFU, ILF3 / Fold change vs veh, ILF3 / RFU 11762660_at / Fold change /veh 11762660_at / RFU VCAN (11757783_s_at) / Fold change /veh VCAN (11757783_s_at) / RFU DDX43 (11728927_at) / Fold change /veh DDX43 (11728927_at) / RFU KRT8 (11758188_x_at) / Fold change /veh KRT8 (11758188_x_at) / RFU NKD1 (11759106_at) / Fold change /veh NKD1 (11759106_at) / RFU SRD5A1 (11742802_a_at) / Fold change /veh SRD5A1 (11742802_a_at) / RFU TPSAB1 /// TPSB2 (11721975_s_at) / Fold change /veh TPSAB1 /// TPSB2 (11721975_s_at) / RFU GSTM3 (11746129_a_at) / Fold change /veh GSTM3 (11746129_a_at) / RFU IL23R (11737362_x_at) / Fold change /veh IL23R (11737362_x_at) / RFU TMEM51 (11727254_a_at) / Fold change /veh TMEM51 (11727254_a_at) / RFU PIWIL2 (11732686_x_at) / Fold change /veh PIWIL2 (11732686_x_at) / RFU ORM1 (11744905_x_at) / Fold change /veh ORM1 (11744905_x_at) / RFU CCDC152 (11743942_at) / Fold change /veh CCDC152 (11743942_at) / RFU ECM1 (11717891_a_at) / Fold change /veh ECM1 (11717891_a_at) / RFU IL23R (11748794_a_at) / Fold change /veh IL23R (11748794_a_at) / RFU TNFAIP8L3 (11732012_x_at) / Fold change /veh TNFAIP8L3 (11732012_x_at) / RFU MBOAT4 (11741988_at) / Fold change /veh MBOAT4 (11741988_at) / RFU 11764193_at / Fold change /veh 11764193_at / RFU TMEM53 (11763286_at) / Fold change /veh TMEM53 (11763286_at) / RFU MAGEB2 (11727129_at) / Fold change /veh MAGEB2 (11727129_at) / RFU TMEM200A (11744735_a_at) / Fold change /veh TMEM200A (11744735_a_at) / RFU CCDC152 (11751479_a_at) / Fold change /veh CCDC152 (11751479_a_at) / RFU FAM211A (11726209_a_at) / Fold change /veh FAM211A (11726209_a_at) / RFU RGS16 (11746705_a_at) / Fold change /veh RGS16 (11746705_a_at) / RFU VCAN (11755009_s_at) / Fold change /veh VCAN (11755009_s_at) / RFU RHOB (11743442_s_at) / Fold change /veh RHOB (11743442_s_at) / RFU RGS16 (11720943_a_at) / Fold change /veh RGS16 (11720943_a_at) / RFU RGS16 (11720944_at) / Fold change /veh RGS16 (11720944_at) / RFU, VPS4B / Fold change vs veh, VPS4B / RFU, CREB1 / Fold change vs veh, CREB1 / RFU, DNAJC13 / Fold change vs veh, DNAJC13 / RFU, GNAQ / Fold change vs veh, GNAQ / RFU, CDK5R1 / Fold change vs veh, CDK5R1 / RFU, ZRANB3 / Fold change vs veh, ZRANB3 / RFU, CUL4A / Fold change vs veh, CUL4A / RFU, CCNY / Fold change vs veh, CCNY / RFU, UFL1 / Fold change vs veh, UFL1 / RFU, COG3 / Fold change vs veh, COG3 / RFU, DIAPH2 / Fold change vs veh, DIAPH2 / RFU, SKA2 / Fold change vs veh, SKA2 / RFU, AFF3 / Fold change vs veh, AFF3 / RFU, LMF1 / Fold change vs veh, LMF1 / RFU, IPO11 / Fold change vs veh, IPO11 / RFU, DFFB / Fold change vs veh, DFFB / RFU, FOXP1 / Fold change vs veh, FOXP1 / RFU, CARD8 / Fold change vs veh, CARD8 / RFU, STRN3 / Fold change vs veh, STRN3 / RFU, ADK / Fold change vs veh, ADK / RFU, RASSF2 / Fold change vs veh, RASSF2 / RFU, WIPF1 / Fold change vs veh, WIPF1 / RFU, LARP1B / Fold change vs veh, LARP1B / RFU, RASA1 / Fold change vs veh, RASA1 / RFU, RB1 / Fold change vs veh, RB1 / RFU, PPFIA1 / Fold change vs veh, PPFIA1 / RFU, MAT2A / Fold change vs veh, MAT2A / RFU, CCT5 / Fold change vs veh, CCT5 / RFU, WDR92 / Fold change vs veh, WDR92 / RFU, CUX1 / Fold change vs veh, CUX1 / RFU, TTC7A / Fold change vs veh, TTC7A / RFU, TMEM135 / Fold change vs veh, TMEM135 / RFU, DEPTOR / Fold change vs veh, DEPTOR / RFU, CPM / Fold change vs veh, CPM / RFU, DNAJB6 / Fold change vs veh, DNAJB6 / RFU, CACNA2D3 / Fold change vs veh, CACNA2D3 / RFU, DTX4 / Fold change vs veh, DTX4 / RFU, TFCP2 / Fold change vs veh, TFCP2 / RFU, GMCL1 /// GMCL1P1 / Fold change vs veh, GMCL1 /// GMCL1P1 / RFU, AEBP2 / Fold change vs veh, AEBP2 / RFU, SNHG1 /// SNORD22 /// SNORD25 /// SNORD26 /// SNORD27 /// SNORD28 /// SNORD29 /// SNORD31 / Fold change vs veh, SNHG1 /// SNORD22 /// SNORD25 /// SNORD26 /// SNORD27 /// SNORD28 /// SNORD29 /// SNORD31 / Fold change (Aza/veh), C12orf56 (ProbeSet 11735607_a_at) / Fold change (ACY-1035/veh), C12orf56 (ProbeSet 11735607_a_at) / Fold change (Aza/veh), FGFR1OP (ProbeSet 11751329_s_at) / Fold change (ACY-1035/veh), FGFR1OP (ProbeSet 11751329_s_at) / Fold change (Aza/veh), VPS36 (ProbeSet 11739960_a_at) / Fold change (ACY-1035/veh), VPS36 (ProbeSet 11739960_a_at) / RFU SYPL1 (11715823_x_at) / Fold change /veh SYPL1 (11715823_x_at) / RFU IGFBP7 (11715501_s_at) / Fold change /veh IGFBP7 (11715501_s_at) / RFU REEP3 (11722064_at) / Fold change /veh REEP3 (11722064_at) / RFU IGLL1 (11728026_x_at) / Fold change /veh IGLL1 (11728026_x_at): dose or concentration left out as unconfirmed
Conditions: MV-4-11 cells, 48 hours

SMILES: Nc1ncn([C@@H]2O[C@H](CO)[C@@H](O)[C@H]2O)c(=O)n1 [azacitidine]
- Fold change /veh TMPRSS6 (11731388_a_at): 1.02

Source: publication PMC5218480 (PLoS ONE, 2017)
